Holding throughout (test): Lipid binding assay (membrane lipid strips)
What all share (details): 0.4 mg enzyme, 100 pmol lipid spots

The target in one assay is T1, CPT II WT (Homo sapiens, UniProt P23786).
T1 construct: made in house; host or cells: Escherichia coli BL21Gold DE
T1 sequence (P23786 26-658): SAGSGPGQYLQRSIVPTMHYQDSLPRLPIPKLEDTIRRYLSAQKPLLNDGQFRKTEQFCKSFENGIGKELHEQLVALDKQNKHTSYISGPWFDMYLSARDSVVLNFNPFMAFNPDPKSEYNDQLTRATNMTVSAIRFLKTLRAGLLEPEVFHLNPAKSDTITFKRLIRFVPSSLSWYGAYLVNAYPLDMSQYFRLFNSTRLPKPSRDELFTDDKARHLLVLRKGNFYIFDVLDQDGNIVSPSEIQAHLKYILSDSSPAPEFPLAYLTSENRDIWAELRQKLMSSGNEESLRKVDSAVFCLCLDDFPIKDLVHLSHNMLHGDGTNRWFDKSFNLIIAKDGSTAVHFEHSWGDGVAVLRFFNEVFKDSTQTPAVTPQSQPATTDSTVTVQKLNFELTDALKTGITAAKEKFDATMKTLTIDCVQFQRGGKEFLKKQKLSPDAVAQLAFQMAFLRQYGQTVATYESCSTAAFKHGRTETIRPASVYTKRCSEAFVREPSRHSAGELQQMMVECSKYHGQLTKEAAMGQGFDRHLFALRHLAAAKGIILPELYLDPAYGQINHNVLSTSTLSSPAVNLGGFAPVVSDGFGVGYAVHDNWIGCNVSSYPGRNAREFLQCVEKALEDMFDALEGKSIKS
The method, then: (§1) Direct interaction of CPT II WT and variants with phospholipids of the mitochondrial membrane was assessed using membrane lipid strips (Echelon Biosciences, Salt Lake City, Utah, USA). The membrane was spotted with 100 pmol of various cell membrane lipids. The assay was performed following manufacturer’s instructions with some modifications explained in the following. At first, the membrane was washed twice in phosphate buffered saline (PBS). After 1 h incubation with blocking solution (3% BSA fatty acid-free in PBS) at room temperature, the membrane was incubated with purified CPT II WT or variant (final amount 0.4 mg protein) for 2 h at 4 °C. After three washing steps, a-His-Probe (H3) mouse monoclonal antibody (Santa Cruz Biotech, Santa Cruz, CA, USA, 1:1000 dilution in PBS containing 3% BSA) was added to the membrane over night at 4 °C. The membrane was washed three times with PBS and incubated with mouse IgG horseradish peroxidase-linked whole antibody (from sheep, Amersham, Little Chalfont, Buckinghamshire, UK) for 1 h at 4 °C. The interaction was visualized by ECL Western blotting detection reagents (Amersham, Little Chalfont, Buckinghamshire, UK).

Another assay addresses T2, CPT II variant P50H (Homo sapiens, UniProt P23786, P50H).
T2 construct: made in house; host or cells: Escherichia coli BL21Gold DE
T2 sequence (P23786 26-658 P50H): T1 sequence (P23786 26-658) with P25H
The method, then:
as §1

Another assay concerns the target T3, CPT II variant S113L (Homo sapiens, UniProt P23786, S113L).
T3 construct: made in house; host or cells: Escherichia coli BL21Gold DE
T3 sequence (P23786 26-658 S113L): T1 sequence (P23786 26-658) with S88L
Here is the method: as §1

Numbering of substitutions follows the chain as printed. Entries after “also recorded” stand apart in the source; their conditions may differ.

For the substance Cardiolipin [CL], the “Signal for interaction on membrane lipid strips” value on CPT II WT is reported as “clearly proven”; on CPT II variant P50H, “lowest; also recorded: clearly proven”; on CPT II variant S113L, “clearly proven”.

For the origin of these results see article PMC8125234, “Cardiolipin Stabilizes and Increases Catalytic Efficiency of Carnitine Palmitoyltransferase II and Its Variants S113L, P50H, and Y479F” (International Journal of Molecular Sciences, 2021).
